We go through 1 compound from patent publication US10980853B2, “Process for preparing a crassocephalum crepidioides extract, extract prepared thereby and use of the extract” (DEVELOPMENT CENTER FOR BIOTECHNOLOGY, priority 2015, dated 2021).

Assay [1] has as its system MKN45 cells. Kind of assay: Inhibition of the growth of MKN45 cancer cells (MTS assay). The format is cell-based. As for the experimental part: (§1) MKN45 cells were incubated in RPMI-1640 medium (Sigma-Aldrich) containing 5% FBS (Gibco®). 6×10^3 cells were added to each well of a 96-well plate. Each well contained 180 μL of the above medium. The plate was incubated at 37° C. for 4 hours, and then 20 μL of various concentrations of each of the raw extract, Cr-E03 and dLGG were added to each well of the plate. Each concentration was tested with 3 replicates. After further incubation at 37° C. for 48 hours, the medium in the wells was removed, and 180 μL of 5% FBS medium containing 3-(4,5-dimethylthiazol-2-yl)-5-(3-carboxymethoxyphenyl)-2-(4-sulfophenyl)-2H-tetrazolium (MTS) were added to the wells. After reaction at 37° C. for 1 hour, the absorption values at 490 nm of the wells were measured by ELISA Reader (Model 680 Microplate Reader, Bio-Rad). IC25, IC50 and IC75 values of the raw extract, Cr-E03 and dLGG, respectively, were obtained by calculation using GraphPad Prism 5 software (GraphPad Software, Inc). IC25, IC50 and IC75 values are defined as the concentrations of the test sample which achieve 25%, 50% and 75%, respectively, of the maximal inhibition of the growth of MKN45 cells.
A general note: Tetrazolium assays rely on reduction of a dye to a coloured formazan, in cell work by metabolically active cells.

The test system of assay [2] is MKN45 cells. Put plainly: Combination with 5-FU or epirubicin in the inhibition of the growth of MKN45 cancer cells (combination index). It counts as cell-based. Conditions: CI<1 synergism, CI=1 addition, CI>1 antagonism. On the procedure: as §1
Combinations of different concentrations of each of the raw extract, Cr-E03 and dLGG with different concentrations of each of 5-fluorouracil (5-FU) and epirubicin were prepared. […]

Converted amounts (≈) assume the structure as drawn.

With `CC/C=C\C/C=C\C/C=C\CCCCCCCC(=O)OC[C@H](CO[C@@H]1O[C@H](CO)[C@H](O)[C@H](O)[C@H]1O)OC(=O)CCCCCCC/C=C\C/C=C\C/C=C\CC` [dLGG, 1,2-di-O-α-linolenoyl-3-O-β-galactopyranosyl-sn-glycerol], the IC25 (usually the concentration at which the effect reaches the 25% level) in the assay on MKN45 cells [1] (48 hours, concentration achieving 25% of maximal growth inhibition) is 35.86 µg/mL (≈ 46.3 µM). The IC75 (commonly the concentration at which the effect reaches the 75% level) with MKN45 cells [1] (48 hours, concentration achieving 75% of maximal growth inhibition) was 61.96 µg/mL (≈ 79.9 µM). For the same compound, half-maximal inhibition with MKN45 cells [1] (Homo sapiens, MKN-45, 48 hours, concentration achieving 50% of maximal growth inhibition) (IC50) required 47.3 µg/mL (≈ 61 µM). Moreover, the “CI (combination index)” value in the assay with MKN45 cells [2] (combination with 5FU) and with MKN45 cells [2] (combination with Epi (epirubicin)) was 1.58 throughout.
